Test system: hypoxia-induced hypervascularization of the retina
Assay: Inhibition of hypoxia-induced vascularization in a mouse model of retinopathy of prematurity (retinopathy score)
Type: in vivo, C57BL/6J mice
Description: A total of thirty C57BL/6J mice were used in a model of retinopathy of prematurity. Seven days after birth, the mice (young) were transferred together with their mothers to a high-oxygen atmosphere (75%) obtained using a mixture of oxygen and air. After 5 days, the animals were transferred to a normal atmosphere. The relative hypoxia produced leads to the release of growth factors which, in turn, cause hypervascularization of the retina. 14-18 hours thereafter, an intravitreous injection of 2 μl of a sterile saline solution of sodium 5-amino-2-naphthalene sulfonate (25 mg/ml) into an eye was performed, and another injection of an equivalent volume of saline solution was performed in the contralateral eye.
Five days after the return to normal atmosphere, the mice were put down by means of an intracardiac injection of dextrane marked with fluorescein (50 mg/ml), the nuclei were removed from both eyes and were fixed for 2 to 6 hours in formaldehyde (4%) at room temperature.
Subsequently, the retina was cut and mounted for observation by fluorescent microscopy, with the vasculature of the retina being assessed. Given that the retina occupies a circular area, in order to perform the assessment, 12 equal radial segments are considered. For the assessment of the central vascularization, the retina is divided into three concentric circles defining three zones: the interior zone around the optic disc, the middle and the exterior zone.
The retinopathy is quantified using a system of multiple assessment in which various morphological parameters associated with retinopathy are assessed: • Presence of a “crest” in each radial segment. One point for each radial segment with the presence of crests. Scoring from 0 to 12. • Presumed extraretinal vascularization, indicated by the presence of groupings of “crest-like” structures. One point for each radial segment with groupings. Scoring from 0 to 12. • Size of the central avascular zone. Scoring from 0 to 3, with 0 meaning an occupation of less than 50% of the interior zone; 1 an occupation of less than 25% of the sum of the interior and middle zone; 2 an occupation of between 25-50% of said sum and 3 an occupation of greater than 50% of same. • Tortuosity of the vessels, measured as a percentage of tortuous vessels with respect to the total. The scoring ranges from 0 to 3, with 0 meaning no tortuosity, 1 if less than ⅓ of the total are tortuous, 2 if between ⅓ and ⅔ are tortuous, and 3 if more than ⅔ are tortuous.
For each eye, a global assessment was obtained consisting of the sum of the points obtained for each parameter.
The statistical analysis of the data was performed subsequently using a Wilcoxon's test.

[1] = intravitreous injection of 2 μl of 25 mg/ml in saline, five days after return to normal atmosphere, N 30

## Nc1cccc2cc(S(=O)(=O)[O-])ccc12.[Na+] [ACTIVE, sodium 5-amino-2-naphthalene sulfonate]
Histological sections, FIG. 2
  Effect seen in histological sections of treated eye versus contralateral placebo eye (in words): antiangiogenic effect
Intravitreous injection of 2 μl of 25 mg/ml in saline into one eye, saline in contralateral eye, assessed five days after return to normal atmosphere, N 30, p=0.017 vs placebo (Wilcoxon)
  Global retinopathy assessment (sum of the points obtained for each parameter), Median: 10.5
[1]
  Global retinopathy assessment (sum of the points obtained for each parameter), Maximum: 16
  Global retinopathy assessment (sum of the points obtained for each parameter), Minimum: 3
Score compared to placebo, FIG. 1
  Effect on neovascularization induced by hypoxia of the retina (in words): inhibitory effect
